This is an account of results in US8609622B2, “C-aryl glucoside derivatives, preparation process and pharmaceutical use thereof” (Shanghai Hengrui Pharmaceutical Co., Ltd., priority 2010, dated 2013).

One experiment has as its system glucose-load mice. Nature of the experiment: Preliminary evaluation of the hypoglycemic effect in glucose-load mice. It is filed as in vivo. As to conditions: ICR mice, dose 1 mg/kg, 20% glucose solution 4 g/kg given 15 minutes after administering, blood glucose at minute 0, 15, 30, 45, 60, 120. The procedure:
The purpose was to observe the effect of the test compounds on blood glucose levels of glucose-load mice. Determination and analysis of sugar content in the blood collected from the mouse tail was determined at different times within 2 hours of administration to provide preliminary evaluation of the hypoglycemic activity in vivo.
The experimental animals used were 24 healthy ICR mice (weighing 20-24 g), 12 female and 12 male, purchased from Shanghai Super—B&K laboratory animal Corp. Ltd., animal production license number: SCXK (Shanghai) 2008-0016.
To prepare the drug, a certain amount of compounds were weighed and dissolved in water (pure water OWN) and formulated into an aqueous solution of 0.1 mg/mL (5% DMSO for solubilization).
The administered dose was 1 mg/kg, blank and water groups (containing 5% DMSO).
20% glucose solution (4 g/kg, 0.8 mL each mouse) was given after 15 minutes of administration.
Administering in dose and measuring the blood glucose value (−15 minutes).

The target in another experiment is SGLT2 (Homo sapiens (Human), UniProt P31639). Put plainly: SGLT2 activity measurement: [14C] methyl α-D-glucopyranoside uptake in SGLT2 instantaneous transfer strain. Particulars: SGLT2 transfected cells, 96-well plate, 15 min preincubation, 2 hours with [14C] methyl α-D-glucopyranoside at 37° C. It is filed as cell-based.
A further experiment deals with SGLT1 (Homo sapiens (Human), UniProt P13866). Put plainly: SGLT1 activity measurement: [14C] methyl α-D-glucopyranoside uptake in SGLT1 instantaneous transfer strain. The experiment is classed as cell-based. As to conditions: SGLT1 transfected cells, 96-well plate, 15 min preincubation, 2 hours with [14C] methyl α-D-glucopyranoside at 37° C.
Sequence of SGLT1 (P13866 whole entry, species assumed): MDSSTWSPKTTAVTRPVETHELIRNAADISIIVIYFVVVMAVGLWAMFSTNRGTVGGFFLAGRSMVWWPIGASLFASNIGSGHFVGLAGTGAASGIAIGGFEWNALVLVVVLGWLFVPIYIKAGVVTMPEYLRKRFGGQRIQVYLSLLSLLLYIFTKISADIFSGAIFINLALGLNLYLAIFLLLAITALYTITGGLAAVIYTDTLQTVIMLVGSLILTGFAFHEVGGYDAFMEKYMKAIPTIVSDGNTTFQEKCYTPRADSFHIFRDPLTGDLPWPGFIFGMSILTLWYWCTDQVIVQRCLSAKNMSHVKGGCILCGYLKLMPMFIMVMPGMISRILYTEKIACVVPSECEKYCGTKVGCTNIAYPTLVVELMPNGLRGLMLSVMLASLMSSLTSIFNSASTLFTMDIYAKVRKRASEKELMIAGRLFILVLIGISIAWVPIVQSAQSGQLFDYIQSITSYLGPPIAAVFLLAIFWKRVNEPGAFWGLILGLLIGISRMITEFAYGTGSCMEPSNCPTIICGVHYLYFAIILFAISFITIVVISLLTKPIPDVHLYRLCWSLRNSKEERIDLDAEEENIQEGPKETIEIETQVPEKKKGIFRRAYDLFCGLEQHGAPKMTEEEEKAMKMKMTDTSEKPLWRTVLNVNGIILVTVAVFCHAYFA

Sequence of SGLT2 (P31639 whole entry, species assumed): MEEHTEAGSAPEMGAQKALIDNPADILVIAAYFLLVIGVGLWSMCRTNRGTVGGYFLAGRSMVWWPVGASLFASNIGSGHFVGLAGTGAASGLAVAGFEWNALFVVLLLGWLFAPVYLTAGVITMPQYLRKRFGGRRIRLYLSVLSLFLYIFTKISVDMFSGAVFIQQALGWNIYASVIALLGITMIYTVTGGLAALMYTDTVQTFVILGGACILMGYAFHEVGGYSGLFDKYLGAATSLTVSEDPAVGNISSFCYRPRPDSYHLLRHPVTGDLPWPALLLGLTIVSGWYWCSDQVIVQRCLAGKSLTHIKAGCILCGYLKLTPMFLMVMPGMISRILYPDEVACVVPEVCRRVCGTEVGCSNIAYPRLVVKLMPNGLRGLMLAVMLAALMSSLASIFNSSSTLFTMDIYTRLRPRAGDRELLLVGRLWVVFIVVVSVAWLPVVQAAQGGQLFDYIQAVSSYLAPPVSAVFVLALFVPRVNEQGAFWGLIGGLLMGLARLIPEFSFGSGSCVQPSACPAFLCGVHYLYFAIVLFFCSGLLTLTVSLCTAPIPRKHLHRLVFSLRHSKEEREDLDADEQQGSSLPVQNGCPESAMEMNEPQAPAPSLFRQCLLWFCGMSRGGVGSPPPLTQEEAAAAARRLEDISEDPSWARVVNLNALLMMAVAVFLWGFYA
Description for SGLT1: (§1) Then each well of the 96-well plate was washed with 200 μL sodium-free buffer twice and 90 μL sodium-containing buffer solution containing test compounds having different concentrations was added, each of the test compounds having its corresponding concentration repeated in three wells. The compounds were incubated at 37° C. for 15 minutes and then each well of the 96-well plate was incubated with [14C] Methyl α-D-glucopyranoside (10 μL, totally 0.1 μCi) for another 2 hours at 37° C. Thereafter, supernatant was removed; the cell pellet was washed twice with precooling no-sodium buffer and lysed in 200 mM NaOH (100 μL). 100 μL scintillation fluid was added and mixed and 14C was quantitatively detected using liquid scintillation.
(§2) The IC50 values of the compounds can be calculated using the aggregation rate at different concentrations.
Description for SGLT2: as §1, §2

Turning to `OCC12COC(c3ccc(Cl)c(Cc4ccc5c(c4)CCO5)c3)(O1)[C@H](O)[C@@H](O)[C@@H]2O` (stereo in doubt) [Example 5, (1S,2S,3S,4R,5S)-5-[4-chloro-3-(2,3-dihydrobenzofuran-5-ylmethyl)phenyl]-1-(hydroxymethyl)-6,8-dioxabicyclo[3.2.1]octane-2,3,4-triol], the “AUC decline rate %” value in the experiment on glucose-load mice was 14.13%. The same measure, in the same setting: in the case of `CCOc1ccc(Cc2cc(C34OCC(CO)(O3)[C@@H](O)[C@H](O)[C@H]4O)ccc2Cl)cc1F` (stereo in doubt) [Example 4, (1S,2S,3S,4R,5S)-5-[4-chloro-3-[(4-ethoxy-3-fluoro-phenyl)methyl]phenyl]-1-(hydroxymethyl)-6,8-dioxabicyclo[3.2.1]octane-2,3,4-triol] it was 15.88%. Take `CCOc1ccc(Cc2cc(C34OCC(CO)(O3)C(O)C(O)C4O)ccc2Cl)c(F)c1F` (single isomer, unassigned) [Example 3]: at SGLT2, the IC50 stood at 8.08 nM.

In turn, `CCOc1ccc(Cc2cc(C34OCC(CO)(O3)C(O)C(O)C4O)ccc2Cl)cc1F` (single isomer, unassigned) [Example 4] had a half-inhibitory concentration (IC50) at SGLT2 of 6.92 nM. Take `[2H]C([2H])([2H])Oc1ccc(Cc2cc(C34OCC(CO)(O3)[C@@H](O)[C@H](O)[C@H]4O)ccc2Cl)cc1F` (stereo in doubt) [Example 8, (1S,2S,3S,4R,5S)-5-[4-chloro-3-[[3-fluoro-4-(trideuteriomethoxy)phenyl]methyl]phenyl]-1-(hydroxymethyl)-6,8-dioxabicyclo[3.2.1]octane-2,3,4-triol]: the IC50 at SGLT2 stood at 1.42 nM; on SGLT1 it was 600 nM. In the experiment on glucose-load mice, the “AUC decline rate %” value is on record as 20.49%. The like results for `COc1ccc(Cc2cc(C34OCC(CO)(O3)[C@@H](O)[C@H](O)[C@H]4O)ccc2Cl)c(F)c1F` (stereo in doubt) [Example 2, (1S,2S,3S,4R,5S)-5-[4-chloro-3-[(2,3-difluoro-4-methoxy-phenyl)methyl]phenyl]-1-(hydroxymethyl)-6,8-dioxabicyclo[3.2.1]octane-2,3,4-triol] were, in that order, 3.65 nM, above 2000 nM and 12.95%. `[2H]C([2H])([2H])C([2H])([2H])Oc1ccc(Cc2cc(C34OCC(CO)(O3)[C@@H](O)[C@H](O)[C@H]4O)ccc2Cl)cc1F` (stereo in doubt) [Example 10, (1S,2S,3S,4R,5S)-5-[4-chloro-3-[[3-fluoro-4-(1,1,2,2,2-pentadeuterioethoxy)phenyl]methyl]phenyl]-1-(hydroxymethyl)-6,8-dioxabicyclo[3.2.1]octane-2,3,4-triol]: the IC50 against SGLT2 amounted to 3.31 nM; against SGLT1, 1220 nM.

`OCC12COC(c3ccc(Cl)c(Cc4ccc(OC(F)(F)F)cc4)c3)(O1)[C@H](O)[C@@H](O)[C@@H]2O` (stereo in doubt) [Example 6, (1S,2S,3S,4R,5S)-5-[4-chloro-3-[[4-(trifluoromethoxy)phenyl]methyl]phenyl]-1-(hydroxymethyl)-6,8-dioxabicyclo[3.2.1]octane-2,3,4-triol]: in the experiment with glucose-load mice, the “AUC decline rate %” value is reported as 10.15%. On SGLT1, `OCC12COC(c3ccc(Cl)c(Cc4ccc5c(c4)CCO5)c3)(O1)C(O)C(O)C2O` (single isomer, unassigned) [Example 5] registered a half-maximal inhibitory concentration (IC50) of 2520 nM. Regarding `[2H]C([2H])(c1ccc(OCC)c(F)c1)c1cc(C23OCC(CO)(O2)[C@@H](O)[C@H](O)[C@H]3O)ccc1Cl` (stereo in doubt) [Example 11, (1S,2S,3S,4R,5S)-5-[4-chloro-3-[dideuterio-(4-ethoxy-3-fluoro-phenyl)methyl]phenyl]-1-(hydroxymethyl)-6,8-dioxabicyclo[3.2.1]octane-2,3,4-triol], the IC50 at SGLT2 turned out to be 6.35 nM; against SGLT1, 3550 nM.

Turning to `Cc1ccc(C23OCC(CO)(O2)C(O)C(O)C3O)cc1Cc1ccc(-c2ccc(F)cc2)s1` (single isomer, unassigned) [Example 9], the concentration for half-maximal inhibition (IC50) was determined as 9.28 nM at SGLT2 and 1260 nM at SGLT1. As to `OCC12COC(c3ccc(Cl)c(Cc4ccc(OCCOC5CC5)cc4)c3)(O1)[C@H](O)[C@@H](O)[C@@H]2O` (stereo in doubt) [Example 1, (1S,2S,3S,4R,5S)-5-[4-chloro-3-[[4-[2-(cyclopropoxy)ethoxy]phenyl]methyl]phenyl]-1-(hydroxymethyl)-6,8-dioxabicyclo[3.2.1]octane-2,3,4-triol], the half-maximal inhibitory concentration (IC50) against SGLT2 was 9.53 nM; on SGLT1, above 2000 nM. In the experiment with glucose-load mice, the “AUC decline rate %” value was determined as 10.04%.

As for `OCC12COC(c3ccc(Cl)c(Cc4ccc(OCC(F)(F)F)cc4)c3)(O1)[C@H](O)[C@@H](O)[C@@H]2O` (stereo in doubt) [Example 7, (1S,2S,3S,4R,5S)-5-[4-chloro-3-[[4-(2,2,2-trifluoroethoxy)phenyl]methyl]phenyl]-1-(hydroxymethyl)-6,8-dioxabicyclo[3.2.1]octane-2,3,4-triol], in the experiment with glucose-load mice, the “AUC decline rate %” value worked out at 10.75%. Regarding `OCC12COC(c3ccc(Cl)c(Cc4ccc(OCC(F)(F)F)cc4)c3)(O1)C(O)C(O)C2O` (single isomer, unassigned) [Example 7], the half-inhibitory concentration (IC50) against SGLT2 came to 4.58 nM; at SGLT1, 14300 nM.

Usually IC50 stands for the concentration that inhibits the measured activity by half. A low value points to greater potency in that assay.
